Results as given in ChEMBL document CHEMBL1201862, “PubChem BioAssay data set” (2004).
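A five-concentration, 48-hour dose response in 96-well plates underlies each endpoint, interpolated linearly between surrounding concentrations. GI50 = concentration required for 50% inhibition of growth.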 Active and inactive are the calls of the source. Rule as the data show it: active = GI50 up to about 1.1 µM and inactive = higher.

Assays:
Assay in all cases: NCI tumour cell line growth inhibition, 48 h
[1] = tested on: 786-0
[2] = tested on: A549
[3] = tested on: ACHN
[4] = tested on: DU-145
[5] = tested on: KM12
[6] = tested on: MCF7
[7] = tested on: NCI/ADR-RES
[8] = tested on: OVCAR-4
[9] = tested on: PC-3
[10] = tested on: SF-539
[11] = tested on: SK-MEL-28
[12] = tested on: SK-MEL-2
[13] = tested on: SNB-19
[14] = tested on: T47D
[15] = tested on: TK-10
[16] = tested on: UACC-257
[17] = tested on: UACC-62
[18] = tested on: MDA-MB-435
[19] = tested on: OVCAR-3
[20] = tested on: CAKI-1

Structure (SMILES)	GI50 [1]	GI50 [2]	GI50 [3]	GI50 [4]	GI50 [5]	GI50 [6]	GI50 [7]	GI50 [8]	GI50 [9]	GI50 [10]	GI50 [11]	GI50 [12]	GI50 [13]	GI50 [14]	GI50 [15]	GI50 [16]	GI50 [17]	GI50 [18]	GI50 [19]	GI50 [20]
Cc1ccc(S(=O)(=O)NC(=O)NS(=O)(=O)O)cc1	> 100 µM (inactive)	> 100 µM (inactive)	> 100 µM (inactive)	> 100 µM (inactive)	> 100 µM (inactive)	> 100 µM (inactive)	> 100 µM (inactive)	> 100 µM (inactive)	> 100 µM (inactive)	> 100 µM (inactive)	> 100 µM (inactive)	> 100 µM (inactive)	> 100 µM (inactive)	> 100 µM (inactive)	> 100 µM (inactive)	> 100 µM (inactive)	> 100 µM (inactive)	–	–	–
O=C(O)c1ccccc1C(=O)Nn1cnnc1	> 100 µM (inactive)	> 100 µM (inactive)	> 100 µM (inactive)	> 100 µM (inactive)	> 100 µM (inactive)	> 100 µM (inactive)	> 100 µM (inactive)	> 100 µM (inactive)	> 100 µM (inactive)	> 100 µM (inactive)	> 100 µM (inactive)	> 100 µM (inactive)	> 100 µM (inactive)	–	> 100 µM (inactive)	> 100 µM (inactive)	> 100 µM (inactive)	> 100 µM (inactive)	> 100 µM (inactive)	–
COC(=O)c1c(-c2ccc(Cl)cc2)cc2c3ccccc3n(C)c2c1C(=O)OC	> 100 µM (inactive)	> 100 µM (inactive)	> 100 µM (inactive)	> 100 µM (inactive)	> 100 µM (inactive)	38.3 µM (inactive)	> 100 µM (inactive)	> 100 µM (inactive)	> 100 µM (inactive)	> 100 µM (inactive)	> 100 µM (inactive)	> 100 µM (inactive)	> 100 µM (inactive)	–	> 100 µM (inactive)	64.7 µM (inactive)	> 100 µM (inactive)	> 100 µM (inactive)	> 100 µM (inactive)	> 100 µM (inactive)
O=C(Cc1ccccc1)Nn1c(-c2ccccc2)nc2ccccc2c1=O	> 100 µM (inactive)	> 100 µM (inactive)	> 100 µM (inactive)	> 100 µM (inactive)	> 100 µM (inactive)	> 100 µM (inactive)	–	> 100 µM (inactive)	> 100 µM (inactive)	> 100 µM (inactive)	> 100 µM (inactive)	–	> 100 µM (inactive)	> 100 µM (inactive)	> 100 µM (inactive)	> 100 µM (inactive)	> 100 µM (inactive)	> 100 µM (inactive)	> 100 µM (inactive)	–
CC(=O)OC1C(C)OC(OC(=O)C2CCC3C(C2)OC2(CC(OC(=O)/C=C/c4ccccc4)C(C)CO2)C32CO2)C(OC2OC(C)C(O)C(OC(C)=O)C2O)C1O (centres undefined)	< 0.01 µM (active)	< 0.01 µM (active)	< 0.0421 µM (active)	< 0.01 µM (active)	< 0.01 µM (active)	< 0.01 µM (active)	–	< 0.01 µM (active)	< 0.01 µM (active)	< 0.01 µM (active)	< 0.01 µM (active)	< 0.01 µM (active)	< 0.01 µM (active)	< 0.01 µM (active)	0.0131 µM (active)	< 0.01 µM (active)	< 0.01 µM (active)	< 0.01 µM (active)	< 0.01 µM (active)	0.245 µM (active)
O=C(O)CCCc1ccc2c(c1)C(C(=O)O)CC2 (centres undefined)	> 100 µM (inactive)	> 100 µM (inactive)	> 100 µM (inactive)	> 100 µM (inactive)	> 100 µM (inactive)	> 100 µM (inactive)	> 100 µM (inactive)	> 100 µM (inactive)	> 100 µM (inactive)	> 100 µM (inactive)	> 100 µM (inactive)	> 100 µM (inactive)	> 100 µM (inactive)	> 100 µM (inactive)	> 100 µM (inactive)	> 100 µM (inactive)	> 100 µM (inactive)	–	–	> 100 µM (inactive)
CCOC(=O)c1c(-c2ccc(O)c(OC)c2)c(C#N)c(=S)n(C2OC(CO)C(O)C(O)C2O)c1-c1ccccc1 (centres undefined)	> 100 µM (inactive)	> 100 µM (inactive)	> 100 µM (inactive)	> 100 µM (inactive)	> 100 µM (inactive)	> 100 µM (inactive)	> 100 µM (inactive)	> 100 µM (inactive)	> 100 µM (inactive)	–	> 100 µM (inactive)	–	> 100 µM (inactive)	–	–	> 100 µM (inactive)	> 100 µM (inactive)	> 100 µM (inactive)	> 100 µM (inactive)	> 100 µM (inactive)
